Values belong to the compound of their own block, whether it stands above or below them.
Tests used:
Experiment in all cases: Competitive cysteine profiling of cell lysate with desthiobiotin iodoacetamide probe (96-well sample prep)
Format in all cases: binding
[1] = biological target: T1, cysteine residue illustrated in Table 1A or Table 2A (Homo sapiens, UniProt Q7Z4G1); settings: UniProt Q7Z4G1; 100 uM
T1 construct: Cells were resuspended in cold PBS on ice and sonicated with a probe sonicator to achieve lysis; endogenous in cells
T1 sequence (Q7Z4G1 whole entry): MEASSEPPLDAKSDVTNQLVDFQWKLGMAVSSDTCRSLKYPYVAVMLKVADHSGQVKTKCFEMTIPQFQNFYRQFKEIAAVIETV
Protocol: (§1) In some embodiments, the solution sample (e.g., cell sample, cell lysate sample, or comprising isolated proteins) is incubated with a compound of Formula (I) for analysis of protein-probe interactions. In some instances, the solution sample (e.g., cell sample, cell lysate sample, or comprising isolated proteins) is further incubated in the presence of an additional compound probe prior to addition of the compound of Formula (I). […] In such instances, the solution sample is incubated with a probe and a ligand for competitive protein profiling analysis.
(§2) The following 96-well sample prep protocol was used for sample preparation.
(§3) Cells were resuspended in cold PBS on ice and sonicated with a probe sonicator to achieve lysis. 200 μL of lysate containing 5 mg/ml proteome was treated with 2 μL of 100× compound stock in a 2-mL deep-well plate. The treated lysate was subsequently incubate at 25° C. for 1 hr with shaking at 600 rpm. The treated lysate was further incubated with 2 μL of 10 mM desthiobiotin iodoacetamide probe at 25° C. for 1 hr with shaking at 600 rpm. Next, the lysate was further treat with 20 μL of solution of PBS containing 11 mM MgSO4 and 2.5% Turbonuclease stock and incubated at 25° C. for 20 minutes with shaking at 600 rpm. 1.7 mL ice-cold acetone was added to each well and incubated at −20° C. for 2 hr, followed by max speed (4200 rpm) spin for 45 min. Acetone was then decanted and the plates were blotted to remove acetone. The plates were then dried in open air for 20 minutes. After drying, the plates were then covered with foil seal and stored at −80° C. overnight.
(§4) The next day, samples were re-suspended in 90 μL of solution of 9M urea, 50 mM ammonium bicarbonate and 10 mM DTT by incubating at 65C for 20 min with shaking at 1500 rpm. Next, samples were cooled to 37° C. and then 10 μL of 500 mM iodoacetamide solution (92.48 mg/ml) was added. The samples were then incubated at 37° C. for 30 min with shaking at 600 rpm.
(§5) ZEBA desalting plates were equilibrated 4 times using 250 μL of 2M urea, 50 mM ammonium bicarbonate solution followed by centrifugation at 1500 rpm for 2 minutes. After equilibration was complete, samples were applied to ZEBA desalting plate and spin at 1500 rpm for 2 min on top of 1 mL 96-well deep-well collection plate to buffer exchange samples. 4 μL of solution containing 25 mM CaCl2 and 0.25 mg/mL trypsin was added to the plate and the plate was then incubated at 37° C. for 2 hrs with shaking at 600 rpm. 300 μL of solution containing 5% high-capacity streptavidin agarose slurry in 25 mM Tris-HCl pH 7.5, 150 mM NaCl, and 0.1% NP-40 then added. The plate was incubated at 25° C. for 2 hrs with shaking at 600 rpm. Samples were transferred to 25 μm filter plate and spin at 1000 rpm for 2 min. Samples were then washed 3 times with 0.75 mL of wash buffer (25 mM Tris-HCl pH 7.5, 150 mM NaCl, and 0.1% NP-40) followed by washing 3 times with 0.75 mL PBS, and then 4 times with 0.75 mL water. After the washing step, samples were eluted into polypropylene 96-well plate by addition of 250 µL of 50% MeCN/water, 0.1% formic acid and allowed to gravity drip for 10 min, followed by centrifugation at 1000 rpm for 2 min. Speedvac was used to dry the plates at about 45° C. for […]. Then the plates were covered with foil seal and stored at −20° C.
(§6) Samples were resuspended by addition of 20 μl of 12.5% ACN, 0.1% formic acid solution, covered with foil seal, and incubated at 42° C. for 10 minutes with shaking at 600 rpm. Then add 30 μL of 0.1% formic acid solution was added and the plate was covered and incubated at 42° C. for 10 minutes with shaking at 600 rpm. Seal plate was then sealed with a 96-well silicon mat for analysis.

[2] = biological target: T2, cysteine residue illustrated in Table 1A or Table 2A (Homo sapiens, UniProt Q86X83); settings: UniProt Q86X83
T2 construct: Cells were resuspended in cold PBS on ice and sonicated with a probe sonicator to achieve lysis; endogenous in cells
T2 sequence (Q86X83 whole entry): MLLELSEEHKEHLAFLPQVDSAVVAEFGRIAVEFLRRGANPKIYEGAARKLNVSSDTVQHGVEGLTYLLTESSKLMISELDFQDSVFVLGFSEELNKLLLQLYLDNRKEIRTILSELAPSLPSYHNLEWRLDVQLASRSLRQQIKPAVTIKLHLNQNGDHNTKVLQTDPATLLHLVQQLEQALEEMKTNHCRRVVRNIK
Protocol: as §1, §2, §3, §4, §5, §6

[3] = biological target: T3, cysteine residue illustrated in Table 1A or Table 2A (Homo sapiens, UniProt Q5H9S7); settings: UniProt Q5H9S7; 100 uM
T3 construct: Cells were resuspended in cold PBS on ice and sonicated with a probe sonicator to achieve lysis; endogenous in cells
T3 sequence (Q5H9S7 1-520): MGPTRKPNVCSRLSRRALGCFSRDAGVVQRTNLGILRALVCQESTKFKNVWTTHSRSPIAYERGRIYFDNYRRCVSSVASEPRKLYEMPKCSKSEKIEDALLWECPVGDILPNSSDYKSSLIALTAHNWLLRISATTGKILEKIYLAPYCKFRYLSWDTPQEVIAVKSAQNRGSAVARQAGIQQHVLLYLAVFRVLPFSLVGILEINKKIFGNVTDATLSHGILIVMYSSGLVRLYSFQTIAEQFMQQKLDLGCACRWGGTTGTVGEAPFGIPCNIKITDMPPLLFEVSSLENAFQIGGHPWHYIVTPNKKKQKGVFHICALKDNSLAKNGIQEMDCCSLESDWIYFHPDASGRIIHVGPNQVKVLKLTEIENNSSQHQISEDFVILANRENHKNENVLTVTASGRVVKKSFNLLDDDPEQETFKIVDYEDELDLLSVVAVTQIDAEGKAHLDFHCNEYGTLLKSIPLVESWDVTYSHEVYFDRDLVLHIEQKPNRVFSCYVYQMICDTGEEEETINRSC
Protocol: as §1, §2, §3, §4, §5, §6

[4] = biological target: T4, cysteine residue illustrated in Table 1A or Table 2A (Homo sapiens, UniProt O95628); settings: UniProt O95628; 100 uM
T4 construct: endogenous in cells
T4 sequence (O95628 1-575): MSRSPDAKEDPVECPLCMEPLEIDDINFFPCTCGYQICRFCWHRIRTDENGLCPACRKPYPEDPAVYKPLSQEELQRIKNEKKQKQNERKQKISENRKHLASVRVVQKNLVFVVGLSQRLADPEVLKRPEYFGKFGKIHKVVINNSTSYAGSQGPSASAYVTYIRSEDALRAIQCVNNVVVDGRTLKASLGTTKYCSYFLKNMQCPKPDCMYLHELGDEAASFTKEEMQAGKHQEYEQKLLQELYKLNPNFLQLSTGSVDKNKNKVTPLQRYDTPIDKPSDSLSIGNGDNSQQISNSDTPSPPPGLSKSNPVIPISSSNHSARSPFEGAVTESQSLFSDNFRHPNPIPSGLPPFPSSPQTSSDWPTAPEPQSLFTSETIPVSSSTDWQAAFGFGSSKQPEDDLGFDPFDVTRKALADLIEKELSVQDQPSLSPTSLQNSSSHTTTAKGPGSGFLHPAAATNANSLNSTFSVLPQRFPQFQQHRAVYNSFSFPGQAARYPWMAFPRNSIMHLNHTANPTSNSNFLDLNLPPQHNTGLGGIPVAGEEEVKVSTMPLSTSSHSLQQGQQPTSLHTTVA
Protocol: as §1, §2, §3, §4, §5, §6

KB05_100 uM_percent_inhibition [1]: 33%
KB05_100 uM_percent_inhibition ([2]; 100 uM): 38%
KB05_500 uM_percent_inhibition ([2]; 500 uM): 78%
KB05_100 uM_percent_inhibition [3]: 54%
KB05_100 uM_percent_inhibition [4]: 94%
Compound: C=CC(=O)N(c1ccccc1)c1ccc(Br)cc1 [KB05]

Compound: COc1ccc2c(c1)CCCN2C(=O)CCl [KB02]
KB02_100 uM_percent_inhibition [1]: 22%
KB02_100 uM_percent_inhibition ([2]; 100 uM): 31%
KB02_500 uM_percent_inhibition ([2]; 500 uM): 83%
KB02_100 uM_percent_inhibition [3]: 69%
KB02_100 uM_percent_inhibition [4]: 6%

Compound: O=C(CCl)Nc1cc(C(F)(F)F)cc(C(F)(F)F)c1 [KBO3]
KB03_100 uM_percent_inhibition [1]: 33%
KB03_100 uM_percent_inhibition ([2]; 100 uM): 35%
KB03_500 uM_percent_inhibition ([2]; 500 uM): 72%
KB03_100 uM_percent_inhibition [3]: 39%
KB03_100 uM_percent_inhibition [4]: 13%
